pEC50, pIC50: −log10 of the molar value.
Experiments:
[1] = Cytotoxicity in mock-infected MT-4 cells (MTT); format: cell-based; conditions: human, read-out: CC50 in MT4-IIIB (μm)
Description: A rapid and automated assay procedure was used for the in vitro evaluation of anti-HIV agents. An HTLV-1 transformed T4-cell line MT-4, which was previously shown to be highly susceptible to and permissive for HIV infection, served as the target cell line. Inhibition of the HIV-induced cytopathogenic effect was used as the end point. The viability of both HIV-and mock-infected cells was assessed spectrophotometrically via in situ reduction of 3-(4,5-dimethylthiazol-2-yl)-2,5-diphenyltetrazolium bromide (MTT). The 50% cytotoxic concentration (CC50 in μg/ml) was defined as the concentration of compound that reduced the absorbance of the mock-infected control sample by 50%. The percent protection achieved by the compound in HIV-infected cells was calculated by the following formula: […]
Examples of inhibition of cell proliferation by particular compounds of formula (I) can be found by looking at the respective CC50 values in the MT-4 cell line.
Cells: MT-4 cells (Miyoshi et al., 1982) were grown and maintained in RPMI 1640 medium supplemented with 10% heat-inactivated fetal calf serum, 2 mM I-glutamine, 0.1% sodium bicarbonate, and 20 æg of gentamicin per ml.

[2] = biological target: T1, His6-tagged HIV-1 integrase / flag-LEDGF/p75 interaction (Human immunodeficiency virus type 1 group M subtype B, UniProt P04585); experiment: AlphaScreen assay of LEDGF-integrase interaction inhibition; format: binding; conditions: for inhibition at 100 µM: read-out: % inhibition at 100 μM in IN-LEDGF alphascreen (values marked *); for pIC50: compounds tested from 0.1 up to 100 μM
T1 construct: His6-tagged HIV-1 integrase; made in house
Description: Alphascreen Assay to Measure the LEDGF-Integrase Interaction Inhibitory Activity of Compounds of the Invention
The AlphaScreen assay was performed according to the manufacturer's protocol (Perkin Elmer, Benelux). Reactions were performed in 25 μl final volume in 384-well Optiwell™ microtiter plates (Perkin Elmer). The reaction buffer contained 25 mM Tris-HCl (pH 7.4), 150 mM NaCl, 1 mM MgCl2, 0.01% (v/v) Tween-20 and 0.1% (w/v) bovine serum albumin. His6-tagged integrase (300 nM final concentration) was incubated with the compounds for 30 min at 4° C. The compounds were added at varying concentrations spanning a wide range from 0.1 up to 100 μM. Afterwards 100 nM flag-LEDGF/p75 was added and incubation was prolonged for an additional hour at 4° C. Subsequently 5 μl of Ni-chelate-coated acceptor beads and 5 μl anti-flag donor beads were added to a final concentration of 20 μg/ml of both beads. Proteins and beads were incubated for 1 h at 30° C. in order to allow association to occur. Exposure of the reaction to direct light was omitted as much as possible and the emission of light from the acceptor beads was measured in the EnVision plate reader (Perkin Elmer, Benelux) and analyzed using the EnVision manager software. IN/DNA binding was analyzed in a similar setting using His6-tagged integrase (1 μM final concentration) and an oligodeoxynucleotide mimicking the IN ELISA oligonucleotide substrate (30 nM final concentration). Counterscreens with JPO2 or PogZ, respectively, were essentially performed as described previously.
Expression and purification of recombinant proteins: His6-tagged HIV-1 integrase, 3×flag-tagged LEDGF/p75, MBP-JPO2 and MBP-PogZ were purified for AlphaScreen applications as described previously 23,25,56.

HIV (MT4-IIIB) = experiment: Anti-HIV activity: inhibition of HIV-induced cytopathogenic effect in MT-4 cells (MTT); format: cell-based; conditions: Human immunodeficiency virus 1, IIIB

Compound | CC50 [1] | inhibition at 100 µM [2] | pIC50 [2] | pEC50 (HIV (MT4-IIIB))
CCCC(C(=O)O)c1c(C)nc(-c2ccccc2)nc1-c1ccc2ccn(C)c2c1 (stereo not drawn) [cpd 92] | 113 µM | 51% | – | –
CCCC(C(=O)O)c1c(C)nc(-c2ccccc2)nc1-c1ccc2sccc2c1 (stereo not drawn) [cpd 88] | 121 µM | – | 4.18 | –
CCCC(C(=O)O)c1c(C)nc(-c2ccccc2)nc1-c1ccc(Cl)cc1OC (stereo not drawn) [cpd 110] | 94 µM | 40% | – | –
CCCC(C(=O)O)c1c(C)nc(-c2ccccc2)nc1-c1ccc(C)cc1O (stereo not drawn) [cpd 119] | 120 µM | – | 4.66 | 4.53
CCCC(C(=O)O)c1c(C)nc(-c2ccccc2)nc1-c1ccc2[nH]c(=O)[nH]c2c1 (stereo not drawn) [cpd 100] | 96 µM | – | 4.15 | –
CCCC(C(=O)O)c1c(C)nc(N2CCCC2)nc1-c1ccc(C)cc1 (stereo not drawn) [cpd 30] | 143 µM | – | 5.34 | 4.79
CCCC(C(=O)O)c1c(C)nc(N2CCCC(c3nc(C(C)C)no3)C2)nc1-c1ccc(C)cc1 (stereo not drawn) [cpd 46] | 42 µM | – | 4.09 | –
CCCC(C(=O)O)c1c(C)nc(-c2cnn(C)c2)nc1-c1ccc(C)cc1 (stereo not drawn) [cpd 162] | > 250 µM | – | – | 4.14
CCCC(C(=O)O)c1c(C)nc(-c2ccccc2)nc1-c1ccc(C(C)C)cc1 (stereo not drawn) [cpd 106] | 32 µM | – | 4.25 | –
CCCC(C(=O)O)c1c(C)nc(-c2ccccc2O)nc1-c1ccc(C)cc1 (stereo not drawn) [cpd 158] | 119 µM | – | – | 4.75
COCCC(C(=O)O)c1c(C)nc(N2CCCCC2)nc1-c1ccc(C)cc1 (stereo not drawn) [cpd 122] | > 250 µM | – | 4.22 | 4.67
CCCC(C(=O)O)c1c(C)nc(N2CC[C@H](N(C)C)C2)nc1-c1ccc(C)cc1 (stereo partly drawn) [cpd 52] | 101 µM | – | 5.44 | –
CCCC(C(=O)O)c1c(C)nc(N2CCCCC2)nc1-c1ccc(C)cc1Cl (stereo not drawn) [cpd 144] | 72.5 µM | – | 5.23 | 5.10
Cc1ccc(-c2nc(N3CCCCC3)nc(C)c2C(OC(C)(C)C)C(=O)O)cc1 (stereo not drawn) [cpd 154] | 118 µM | – | – | 5.97
CCCC(C(=O)O)c1c(C)nc(-c2ccccc2)nc1-c1ccccc1 (stereo not drawn) [cpd 24] | > 125 µM | – | – | 4.10
CCCC(C(=O)O)c1c(C)nc(-c2ccccc2)nc1-c1ccc(C(F)(F)F)cc1 (stereo not drawn) [cpd 108] | 47 µM | – | 4.00 | –
CCCC(C(=O)O)c1c(C)nc(N2CCCN(Cc3ccccc3)CC2)nc1-c1ccc(C)cc1 (stereo not drawn) [cpd 44] | 7 µM | – | 4.96 | –
CCCC(C(=O)O)c1c(C)nc(-c2ccccc2)nc1N1CCCCCC1 (stereo not drawn) [cpd 62] | 131 µM | – | 5.17 | 4.53
CCCC(C(=O)O)c1c(C)nc(N2CCCC(Oc3ccccc3)C2)nc1-c1ccc(C)cc1 (stereo not drawn) [cpd 48] | 25 µM | – | 5.02 | –
Cc1ccc(-c2nc(N3CCCCC3)nc(C)c2C(CCCC(F)(F)F)C(=O)O)cc1 (stereo not drawn) [cpd 124] | 124 µM | – | 4.70 | 5.28
CCCC(C(=O)O)c1c(C)nc(-c2ccccc2)nc1-c1ccc(C)cc1OC (stereo not drawn) [cpd 120] | 124 µM | 48% | – | –
CCCC(C(=O)O)c1c(C)nc(-c2ccccc2)nc1-c1ccc(C)cc1 (stereo not drawn) [cpd 14] | 120 µM | – | 4.66 | 4.63
CCCC(C(=O)O)c1c(C)nc(N2CCCCC2)nc1-c1ccc(F)cc1F (stereo not drawn) [cpd 130] | 99 µM | – | 4.76 | 4.64
CCCC(C(=O)O)c1c(C)nc(N2CCCC(C)C2)nc1-c1ccc(C)cc1 (stereo not drawn) [cpd 40] | 120 µM | – | 4.60 | 4.61
CCCC(C(=O)O)c1c(C)nc(-c2ccccc2)nc1-c1ccc(Cl)cc1 (stereo not drawn) [cpd 102] | 143 µM | – | 4.87 | 4.87
CCCC(C(=O)O)c1c(C)nc(NCC(C)(C)C)nc1-c1ccc(C)cc1 (stereo not drawn) [cpd 174] | 155 µM | – | – | 4.60
CCCC(C(=O)O)c1c(C)nc(N2CCCC(C(=O)NCC(C)C)C2)nc1-c1ccc(C)cc1 (stereo not drawn) [cpd 38] | 144 µM | – | 4.96 | 5.22
CCCC(C(=O)O)c1c(C)nc(N2CCCCC2)nc1-c1ccc(Cl)cc1F (stereo not drawn) [cpd 146] | 72 µM | – | 4.97 | 5.03

Compound | CC50 [1] | inhibition at 100 µM [2] | pIC50 [2] | pEC50 (HIV (MT4-IIIB))
CCCC(C(=O)O)c1c(C)nc(-c2ccccc2)nc1-c1ccc(Cl)cc1F (stereo not drawn) [cpd 94] | 81 µM | – | 5.14 | 4.72
CCCC(C(=O)O)c1c(C)nc(-c2ccccc2Cl)nc1-c1ccccc1 (stereo not drawn) [cpd 16] | > 250 µM | – | – | 3.82
CCCC(C(=O)O)c1c(C)nc(N2CCCCC2)nc1N1CCCCC1 (stereo not drawn) [cpd 148] | 138 µM | – | 4.47 | 4.74
CCCC(C(=O)O)c1c(C)nc(N2CCC(NC(=O)c3ccccc3)CC2)nc1-c1ccc(C)cc1 (stereo not drawn) [cpd 54] | 67 µM | – | 5.41 | –
CCCC(C(=O)O)c1c(C)nc(N2CCCCC2)nc1-c1cc(F)c(F)cc1F (stereo not drawn) [cpd 142] | 79 µM | – | 4.30 | –
CCCC(C(=O)O)c1c(C)nc(N2CCCCC2)nc1-c1ccccc1 (stereo not drawn) [cpd 20] | 120 µM | – | 4.90 | 4.80
CCCC(C(=O)O)c1c(C)nc(N2CC(C)CC(C)C2)nc1-c1ccc(C)cc1 (stereo not drawn) [cpd 34] | 57 µM | – | 4.76 | –
CCCC(C(=O)O)c1c(C)nc(N2CCCN(CC)CC2)nc1-c1ccc(C)cc1 (stereo not drawn) [cpd 56] | > 250 µM | – | 4.13 | 4.00
CCCC(C(=O)O)c1c(C)nc(N2CCCCCC2)nc1-c1ccc(C)cc1 (stereo not drawn) [cpd 36] | 58 µM | – | 4.95 | –
CCCC(C(=O)O)c1c(C)nc(-c2ccccc2)nc1-c1ccc2c(c1)CCCO2 (stereo not drawn) [cpd 90] | 125 µM | – | 4.21 | –
CCCC(C(=O)O)c1c(C)nc(-c2ccccc2Cl)nc1-c1ccc(C)cc1 (stereo not drawn) [cpd 18] | 125 µM | – | 4.05 | –
CCCC(C(=O)O)c1c(C)nc(-c2ccccc2)nc1N1CCN(C)CC1 (stereo not drawn) [cpd 64] | > 250 µM | – | – | 3.71
CCCC(C(=O)O)c1c(C)nc(-c2ccccc2)nc1-c1ccc2c(c1)OCCN2C (stereo not drawn) [cpd 86] | 118 µM | 46% | – | –
CCCC(C(=O)O)c1c(C)nc(-c2ccccc2)nc1N1CCc2ccccc2C1 (stereo not drawn) [cpd 76] | 74 µM | – | 4.03 | –
Cc1ccc(-c2nc(N3CCCCC3)nc(C)c2C(Cc2ccccc2)C(=O)O)cc1 (stereo not drawn) [cpd 126] | 67 µM | – | 4.57 | –
CCCC(C(=O)O)c1c(C)nc(-c2ccccc2)nc1-c1ccc2c(ccn2C)c1 (stereo not drawn) [cpd 74] | 129 µM | 46% | – | –
CCCC(C(=O)O)c1c(C)nc(N2CCc3ccccc3C2)nc1-c1ccc(C)cc1 (stereo not drawn) [cpd 42] | 26 µM | – | 4.76 | –
CCCC(C(=O)O)c1c(C)nc(-c2ccccc2)nc1-c1cccc(O)c1 (stereo not drawn) [cpd 26] | > 125 µM | – | – | 4.15
CCCC(C(=O)O)c1c(C)nc(-c2ccccc2)nc1Cc1ccccc1 (stereo not drawn) [cpd 117] | > 250 µM | – | 5.21 | –
CCCC(C(=O)O)c1c(C)nc(N2CCN(C)CC2)nc1-c1ccc(C)cc1 (stereo not drawn) [cpd 32] | > 250 µM | – | 4.27 | –
CCCC(C(=O)O)c1c(C)nc(-c2ccccc2)nc1Oc1ccccc1 (stereo not drawn) [cpd 78] | 102 µM | 58% | – | –
CCCC(C(=O)O)c1c(C)nc(-c2ccccc2)nc1-c1ccc2ccccc2c1 (stereo not drawn) [cpd 68] | 53 µM | 61% | – | –
CCCC(C(=O)O)c1c(C)nc(N2CCCC(c3ccccc3)C2)nc1-c1ccc(C)cc1 (stereo not drawn) [cpd 50] | 28 µM | – | 4.08 | –
CCCC(C(=O)O)c1c(C)nc(NCc2ccccc2)nc1-c1ccc(C)cc1 (stereo not drawn) [cpd 168] | 128 µM | – | – | 4.62
CCCC(C(=O)O)c1c(C)nc(N(C)C)nc1-c1ccccc1 (stereo not drawn) [cpd 2] | 164 µM | – | 4.44 | –
CCCC(C(=O)O)c1c(C)nc(-c2ccccc2)nc1-c1ccc(C)c(C)c1 (stereo not drawn) [cpd 66] | 120 µM | – | 4.55 | –
CCCC(C(=O)O)c1c(C)nc(/C=C/c2ccccc2)nc1-c1ccccc1 (stereo not drawn) [cpd 6] | 98.7 µM | – | 4.34 | –

Reference: patent US8906906B2, “Viral replication inhibitors” (Katholieke Universiteit Leuven, priority 2009, dated 2014)
